Reference: ChEMBL document CHEMBL5120880, “Peptidomimetics: An Overview of Recent Medicinal Chemistry Efforts toward the Discovery of Novel Small Molecule Inhibitors” (J Med Chem, 2022)
pEC50, pIC50: −log10 of the molar value. Converted amounts (≈) assume the structure as drawn.

Experiments:
Escherichia coli [1] = assay: Antimicrobial activity against Escherichia coli KCTC 1682 assessed as minimal inhibitory concentration incubated for 18 hrs; assay type: functional
Pseudomonas aeruginosa = assay: Antimicrobial activity against Pseudomonas aeruginosa KCTC 1637 assessed as minimal inhibitory concentration incubated for 18 hrs; assay type: functional
Staphylococcus aureus [2] = assay: Antimicrobial activity against Staphylococcus aureus KCTC 1621 assessed as minimal inhibitory concentration incubated for 18 hrs; assay type: functional
[3] = test system: Staphylococcus epidermidis; assay: Antimicrobial activity against Staphylococcus epidermidis KCTC 1917 assessed as minimal inhibitory concentration incubated for 18 hrs; assay type: functional
Staphylococcus aureus [4] = assay: Antibacterial activity against Staphylococcus aureus assessed as minimal inhibitory concentration incubated for 24 hrs; assay type: functional
Salmonella enterica = assay: Antibacterial activity against Salmonella enterica assessed as minimal inhibitory concentration incubated for 24 hrs; assay type: functional
Escherichia coli [5] = assay: Antibacterial activity against Escherichia coli assessed as minimal inhibitory concentration incubated for 24 hrs; assay type: functional
Staphylococcus aureus [6] = assay: Antibacterial activity against Staphylococcus aureus MRSA assessed as minimal inhibitory concentration incubated for 24 hrs; assay type: functional
Bacillus subtilis [7] = assay: Antibacterial activity against Bacillus subtilis assessed as minimal inhibitory concentration incubated for 72 hrs; assay type: functional
Murine hepatitis virus = assay: microbe, parasite or virus in culture; settings: Murine coronavirus
[8] = test system: Feline infectious peritonitis virus; assay: microbe, parasite or virus in culture; settings: Alphacoronavirus 1
[9] = test system: Middle East respiratory syndrome-related coronavirus; assay: microbe, parasite or virus in culture
SARS-CoV-2 = assay: microbe, parasite or virus in culture; settings: Severe acute respiratory syndrome coronavirus 2
SARS-CoV = assay: microbe, parasite or virus in culture; settings: Severe acute respiratory syndrome-related coronavirus
[10] = test system: Middle East respiratory syndrome-related coronavirus; assay: Antiviral activity against MERS-CoV by cell based assay; assay type: functional, organism-based
Escherichia coli [11] = assay: Antibacterial activity against Escherichia coli BW25113 assessed as minimal inhibitory concentration by microdilution assay; assay type: functional
Bacillus subtilis [12] = assay: Antibacterial activity against Bacillus subtilis DSM10 assessed as minimal inhibitory concentration by microdilution assay; assay type: functional
Salmonella typhimurium = assay: Antibacterial activity against Salmonella typhimurium TA100 assessed as minimal inhibitory concentration by microdilution assay; assay type: functional, Salmonella enterica subsp. enterica serovar Typhimurium; settings: Salmonella enterica
Mycolicibacterium phlei = assay: Antibacterial activity against Mycobacterium phlei DSM750 assessed as minimal inhibitory concentration by microdilution assay; assay type: functional

CC(=O)NCCNc1nc(NCC(=O)NCCNc2nc(NCC(N)=O)nc(N(Cc3ccccc3)Cc3ccccc3)n2)nc(N(CCCN)CCCN)n1
MIC (Escherichia coli [1]): 64 µg/mL (≈ 82.9 µM)
MIC (Pseudomonas aeruginosa): 32 µg/mL (≈ 41.5 µM)
MIC (Staphylococcus aureus [2]): 32 µg/mL (≈ 41.5 µM)
MIC [3]: 32 µg/mL (≈ 41.5 µM)

CCCCCCCCCCCCCCCCNC(=O)[C@@H](N)Cc1ccccc1
MIC (Staphylococcus aureus [4]): 1250 µg/mL (≈ 3220 µM)
MIC (Salmonella enterica): 625 µg/mL (≈ 1610 µM)
MIC (Escherichia coli [5]): 1250 µg/mL (≈ 3220 µM)
MIC (Staphylococcus aureus [6]): 1250 µg/mL (≈ 3220 µM)
MIC (Bacillus subtilis [7]): 625 µg/mL (≈ 1610 µM)

CCCC1CCC(OC(=O)N[C@@H](CC(C)C)C(=O)N[C@@H](C[C@H]2CCNC2=O)C(O)S(=O)(=O)O)CC1 (stereo partly specified)
pEC50 (Murine hepatitis virus): 6.80
pEC50 [8]: 6.77
pIC50 [9]: 7.00
pIC50 (SARS-CoV-2): 5.80

CC(C)C[C@H](NC(=O)OCC1CCC(F)(F)CC1)C(=O)N[C@@H](C[C@H]1CCNC1=O)C(O)S(=O)(=O)O (stereo partly specified)
pEC50 (Murine hepatitis virus): 6.80
pEC50 [8]: 7.15
pIC50 (SARS-CoV): 5.96
pIC50 [9]: 7.00
pIC50 (SARS-CoV-2): 5.96

CC(C)C[C@H](NC(=O)OCC1CCC(F)(F)CC1)C(=O)N[C@H](C=O)C[C@H]1CCNC1=O
pEC50 [8]: 7.10
pEC50 [10]: 7.52
pIC50 (SARS-CoV-2): 6.05

COc1c(/C=C(\F)c2ccc(NC(=O)[C@H](CC#N)NC(=O)c3ccc(NC(=O)/C(C)=C/c4ccc(O)cc4)cc3)cc2)ccc(C(=O)Nc2ccc(C(=O)O)c(O)c2OC)c1O
MIC (Escherichia coli [11]): < 0.063 µg/mL
MIC (Bacillus subtilis [12]): 0.031 µg/mL (≈ 0.0367 µM)
MIC (Salmonella typhimurium): 0.031 µg/mL (≈ 0.0367 µM)
MIC (Mycolicibacterium phlei): 0.25 µg/mL (≈ 0.296 µM)

CC(=O)NCCNc1nc(NCC(=O)NCCNc2nc(NCC(=O)NCCNc3nc(NCC(N)=O)nc(N(Cc4ccccc4)Cc4ccccc4)n3)nc(N(CCCN)CCCN)n2)nc(N(Cc2ccccc2)Cc2ccccc2)n1
MIC (Escherichia coli [1]): 128 µg/mL (≈ 110 µM)
MIC (Pseudomonas aeruginosa): 32 µg/mL (≈ 27.6 µM)
MIC (Staphylococcus aureus [2]): 64 µg/mL (≈ 55.1 µM)
MIC [3]: 64 µg/mL (≈ 55.1 µM)

CCCCCCCCCCCCNC(=O)[C@@H](N)C(C)CC (stereo partly specified)
MIC (Staphylococcus aureus [4]): 2.5 µg/mL (≈ 8.37 µM)
MIC (Salmonella enterica): 5 µg/mL (≈ 16.7 µM)
MIC (Escherichia coli [5]): 2 µg/mL (≈ 6.7 µM)
MIC (Staphylococcus aureus [6]): 4 µg/mL (≈ 13.4 µM)
MIC (Bacillus subtilis [7]): 510 µg/mL (≈ 1710 µM)

CCCCCCCCCCCCNC(=O)[C@H](N)Cc1ccccc1
MIC (Staphylococcus aureus [4]): 5 µg/mL (≈ 15 µM)
MIC (Salmonella enterica): 10 µg/mL (≈ 30.1 µM)
MIC (Escherichia coli [5]): 5 µg/mL (≈ 15 µM)
MIC (Staphylococcus aureus [6]): 20 µg/mL (≈ 60.1 µM)
MIC (Bacillus subtilis [7]): 8.3 µg/mL (≈ 25 µM)

COc1c(/C=C/c2ccc(NC(=O)[C@H](CC#N)NC(=O)c3ccc(NC(=O)/C(C)=C/c4ccc(O)cc4)cc3)cc2)ccc(C(=O)Nc2ccc(C(=O)O)c(O)c2OC)c1O
MIC (Escherichia coli [11]): 0.125 µg/mL (≈ 0.151 µM)
MIC (Bacillus subtilis [12]): 0.063 µg/mL (≈ 0.0763 µM)
MIC (Salmonella typhimurium): 0.063 µg/mL (≈ 0.0763 µM)
MIC (Mycolicibacterium phlei): 0.5 µg/mL (≈ 0.605 µM)

CC(C)C[C@H](NC(=O)OC1CCC(F)(F)CC1)C(=O)N[C@@H](C[C@H]1CCNC1=O)C(O)S(=O)(=O)O (stereo partly specified)
pEC50 (Murine hepatitis virus): 6.96
pEC50 [8]: 6.92
pEC50 [10]: 6.68
pIC50 (SARS-CoV): 5.66
pIC50 [9]: 7.10
pIC50 (SARS-CoV-2): 5.80

COc1c(NC(=O)c2ccc(-c3cc4ccc(-c5ccc(NC(=O)[C@H](CC#N)NC(=O)c6ccc(NC(=O)/C(C)=C/c7ccc(O)cc7)cc6)cc5)cc4o3)c(OC)c2O)ccc(C(=O)O)c1O
MIC (Escherichia coli [11]): 1 µg/mL (≈ 1.09 µM)
MIC (Bacillus subtilis [12]): 0.25 µg/mL (≈ 0.273 µM)
MIC (Salmonella typhimurium): 0.125 µg/mL (≈ 0.136 µM)
MIC (Mycolicibacterium phlei): 1 µg/mL (≈ 1.09 µM)

CCCCCCCCNC(=O)[C@@H](N)Cc1ccccc1
MIC (Staphylococcus aureus [4]): 39 µg/mL (≈ 141 µM)
MIC (Salmonella enterica): 62.5 µg/mL (≈ 226 µM)
MIC (Escherichia coli [5]): 39 µg/mL (≈ 141 µM)
MIC (Staphylococcus aureus [6]): 52 µg/mL (≈ 188 µM)
MIC (Bacillus subtilis [7]): 78 µg/mL (≈ 282 µM)

CC(=O)NCCNc1nc(NCC(=O)NCCNc2nc(NCC(=O)NCCNc3nc(NCC(N)=O)nc(N(CCCN)CCCN)n3)nc(N(Cc3ccccc3)Cc3ccccc3)n2)nc(N(CCCN)CCCN)n1
MIC (Escherichia coli [1]): 16 µg/mL (≈ 14.6 µM)
MIC (Pseudomonas aeruginosa): 16 µg/mL (≈ 14.6 µM)
MIC (Staphylococcus aureus [2]): 16 µg/mL (≈ 14.6 µM)
MIC [3]: 16 µg/mL (≈ 14.6 µM)

CC(=O)NCCNc1nc(NCC(=O)NCCNc2nc(NCC(=O)NCCNc3nc(NCC(=O)NCCNc4nc(NCC(N)=O)nc(N(Cc5ccccc5)Cc5ccccc5)n4)nc(N(CCCN)CCCN)n3)nc(N(Cc3ccccc3)Cc3ccccc3)n2)nc(N(CCCN)CCCN)n1
MIC (Escherichia coli [1]): 16 µg/mL (≈ 10.8 µM)
MIC (Pseudomonas aeruginosa): 16 µg/mL (≈ 10.8 µM)
MIC (Staphylococcus aureus [2]): 16 µg/mL (≈ 10.8 µM)
MIC [3]: 16 µg/mL (≈ 10.8 µM)

CCCCC1CCC(OC(=O)N[C@@H](CC(C)C)C(=O)N[C@@H](C[C@H]2CCNC2=O)C(O)S(=O)(=O)O)CC1 (stereo partly specified)
pEC50 (Murine hepatitis virus): 6.89
pEC50 [8]: 6.77
pEC50 [10]: 6.28
pIC50 (SARS-CoV): 6.00
pIC50 [9]: 6.89
pIC50 (SARS-CoV-2): 5.96

CCCCCCCCCCNC(=O)[C@@H](N)Cc1ccccc1
MIC (Staphylococcus aureus [4]): 13.3 µg/mL (≈ 43.7 µM)
MIC (Salmonella enterica): 15.6 µg/mL (≈ 51.2 µM)
MIC (Escherichia coli [5]): 10 µg/mL (≈ 32.8 µM)
MIC (Staphylococcus aureus [6]): 20 µg/mL (≈ 65.7 µM)
MIC (Bacillus subtilis [7]): 39 µg/mL (≈ 128 µM)

CCCCCCCCCCCCNC(=O)[C@@H](N)C(C)C
MIC (Staphylococcus aureus [4]): 3.3 µg/mL (≈ 11.6 µM)
MIC (Salmonella enterica): 6.5 µg/mL (≈ 22.8 µM)
MIC (Escherichia coli [5]): 1.67 µg/mL (≈ 5.87 µM)
MIC (Staphylococcus aureus [6]): 8.3 µg/mL (≈ 29.2 µM)
MIC (Bacillus subtilis [7]): 4.2 µg/mL (≈ 14.8 µM)

COc1c(NC(=O)c2ccc(-c3ccc4[nH]c(-c5ccc(NC(=O)[C@H](CC#N)NC(=O)c6ccc(NC(=O)/C(C)=C/c7ccc(O)cc7)cc6)cc5)nc4c3)c(OC)c2O)ccc(C(=O)O)c1O
MIC (Escherichia coli [11]): 0.25 µg/mL (≈ 0.273 µM)
MIC (Bacillus subtilis [12]): 2 µg/mL (≈ 2.18 µM)
MIC (Salmonella typhimurium): 0.063 µg/mL (≈ 0.0688 µM)
MIC (Mycolicibacterium phlei): 8 µg/mL (≈ 8.73 µM)
